Common to all, as to assay: DTP human tumour cell line panel, 48 h
In assay [1] the test system is SK-MEL-2 melanoma.
Assay [2] has as its system A498 renal.
Assay [3] concerns NCI-H522 lung.
The test system of assay [4] is A549 NSCLC.
For assay [5], the system named is OVCAR-4 ovarian.

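Dose response: 5 concentrations. Exposure: 48 h. Format: 96-well plates. Endpoint: linear interpolation; highest concentration if not reached. TGI: total growth inhibition.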

The TGI is the concentration at which net growth stops. Lower therefore signals more potent growth arrest. For `S=C(c1c[nH]c2ccccc12)N1CCN(c2ccccc2)CC1`, the concentration for total growth inhibition (TGI) in assay [1] and in assay [2] was over 100 µM in each case.

In the case of `c1ccc(/N=C2\c3ccccc3CN2c2ccccn2)nc1`, the total growth inhibition concentration (TGI) in assay [3], in assay [1], in assay [4], in assay [5] and in assay [2] was over 100 µM throughout.

For the compound `COc1ccc(Nc2nc(N)c(C(=O)c3ccccc3)s2)cc1`, the total growth inhibition concentration (TGI) in assay [3] is over 100 µM; in assay [1], 32.2 µM; in assay [4] it was over 74.5 µM; in assay [5] it was over 60.8 µM; in assay [2], over 72.5 µM.

On to `COC(=O)c1ccc(CCc2cc(O)c(Br)cc2O)cc1`, for which the TGI in assay [3] came to 12.3 µM; in assay [1], 39.1 µM; in assay [4], 50.5 µM; in assay [5], 23.2 µM; in assay [2], 40.7 µM.

`O=C(N/N=C\c1ccc([N+](=O)[O-])cc1)Nc1cccc2ccccc12`: the TGI is over 100 µM in assay [3]; 23.9 µM in assay [1]; over 100 µM in assay [4]; over 100 µM in assay [5]; 40.9 µM in assay [2].

In the case of `CCn1c(-c2ccc(C)cc2)cs/c1=N\C(P(=O)(O)O)P(=O)(O)O`, the total growth inhibition concentration (TGI) in assay [3], in assay [4] and in assay [2] was over 100 µM in each case.

Regarding `CC(=O)c1c(-c2ccccc2)c(-c2ccc(OCCN(C)C)cc2)n2ccccc12`, the TGI in assay [3] is 27.9 µM; in assay [1], 33.3 µM; in assay [4], 50.7 µM; in assay [5] it was over 100 µM; in assay [2], 39.3 µM.

On to `CC(C)(C)OC(=O)Nc1cc(-c2ccccc2)co1`, for which the TGI is 69.1 µM in assay [3]; over 100 µM in assay [1]; over 100 µM in assay [4]; over 100 µM in assay [5]; over 100 µM in assay [2].

For the compound `CN[C@@H](C)[C@H](OP(=O)(O)OC1[C@@H](O)[C@H](O)C(O)[C@H](O)[C@@H]1O)c1ccccc1` (some centres undefined), the TGI in assay [3], in assay [1], in assay [4], in assay [5] and in assay [2] was over 100 µM throughout.

As to `Cc1ccc(Nc2sc(C)cc2C#N)c([N+](=O)[O-])c1`, the concentration for total growth inhibition (TGI) in assay [3], in assay [4], in assay [5] and in assay [2] was over 100 µM each time.

Consider `CC1=C(C(=O)Nc2ccccc2)C(c2ccc(C)o2)C(C#N)=C(SCc2ccccc2)N1` (centres undefined), for which the TGI in assay [3], in assay [1], in assay [4], in assay [5] and in assay [2] was over 100 µM throughout.

`N#C[C@@]12CCCC(=O)[C@@H]1[C@H]1CCC[C@H]12`: the concentration for total growth inhibition (TGI) in assay [1] was determined as 43.3 µM; in assay [4], 37 µM; in assay [5], 58.6 µM; in assay [2], 31.5 µM.

Turning to `COc1ccc(-n2c3c(c4c(CN(C)C)c(O)ccc42)C(=O)c2ccccc2C3=O)cc1`, the TGI in assay [3] stood at 30.7 µM; in assay [1], 45.8 µM; in assay [4], 37.5 µM; in assay [5], 15.9 µM; in assay [2], 8.47 µM.

Regarding `CCOC(=O)C1(C(=O)OCC)CC(=O)[C@@]2(C1)OCC[C@H]1OC(=O)C[C@H]12`, the concentration for total growth inhibition (TGI) in assay [3], in assay [1], in assay [4], in assay [5] and in assay [2] was over 100 µM each time.

Turning to `CC(=O)O[C@H]1C(=O)[C@@]2(C)[C@H]([C@H](OC(=O)c3ccccc3)[C@]3(O)C[C@H](OC(=O)[C@H](O)[C@@H](NC(=O)CC(C)C)c4ccccc4)C(C)=C1C3(C)C)[C@]1(OC(C)=O)CO[C@@H]1C[C@@H]2O`, the TGI in assay [3] is 0.0135 µM; in assay [1], over 10 µM; in assay [4], over 10 µM; in assay [5] it was over 10 µM; in assay [2], over 10 µM.

Consider `CC1(C)C(=O)C2(OS(=O)(=O)C(F)(F)F)CCC1C2` (centres undefined), for which the total growth inhibition concentration (TGI) in assay [1], in assay [4], in assay [5] and in assay [2] was over 100 µM each time.

With `CC1(C)C[C@H](O)[C@H](O)[C@]23C(=O)O[C@H](O)[C@H]2C(C=O)=CC[C@@H]13`, the TGI in assay [3] and in assay [4] was over 100 µM each time.

Take `COc1cc(/C=C/C(=O)N[C@@H]2C(=O)N3[C@@H]2SC(C)(C)[C@@H]3C(=O)O)cc(OC)c1OC`: the total growth inhibition concentration (TGI) in assay [3], in assay [1], in assay [4], in assay [5] and in assay [2] was over 100 µM in each case.

As for `CN(C)CCNC1=CC(=O)c2c(O)ccc(O)c2C1=O`, the TGI in assay [3] came to 9.85 µM; in assay [1] it was 25.3 µM; in assay [4], 27.3 µM; in assay [5] it was 15.7 µM; in assay [2], 28 µM.

Turning to `CSc1nc(O)c(/C=C2\C=Nc3ccccc32)[nH]1`, the TGI in assay [1], in assay [4], in assay [5] and in assay [2] was over 100 µM each time.

As to `CSc1nncc2[nH]cnc12`, the TGI in assay [1], in assay [4] and in assay [2] was over 100 µM in each case.

Regarding `O=C(N/N=C\c1ccc([N+](=O)[O-])cc1)c1ccccc1Nc1ccccc1C(=O)N/N=C/c1ccc([N+](=O)[O-])cc1`, the TGI in assay [1], in assay [4], in assay [5] and in assay [2] was over 100 µM in each case.

Take `Nc1nc(N)c2nnn(C[C@H]3CC[C@@H](CO)C3)c2n1`: the TGI in assay [3], in assay [4] and in assay [2] was over 100 µM in each case.

For the compound `COc1cc2c3c(n(Cc4ccccc4)c(=O)c2cc1OC)-c1ccccc1C3=O`, the TGI in assay [3], in assay [1], in assay [4] and in assay [5] was over 100 µM throughout.

In the case of `COc1cc2c(cc1OC)C(Cc1ccccc1CCCl)=NCC2`, the TGI in assay [3], in assay [1], in assay [4], in assay [5] and in assay [2] was over 100 µM in each case.

With `O=C(/C=C\Nc1ccccc1O)C(Cl)(Cl)Cl`, the concentration for total growth inhibition (TGI) in assay [3] was 65 µM; in assay [1] it was over 100 µM; in assay [4], over 100 µM; in assay [5] it was over 100 µM; in assay [2], over 100 µM.

With `CC(C)(C)OC(=O)NC(Cc1ccc(OCc2ccccc2)cn1)C(=O)N1CCSCC1` (centres undefined), the TGI in assay [3], in assay [1], in assay [4] and in assay [2] was over 100 µM throughout.

Turning to `CC1=C(C(=O)NCC(C)O)CC(C(=O)NCC(C)O)=C(C)N1` (centres undefined), the total growth inhibition concentration (TGI) in assay [3], in assay [1], in assay [4] and in assay [5] was over 100 µM each time.

In the case of `CN(C)CCNC(=O)c1ccc(NCCCN(C)CCCNc2ccc(C(=O)NCCN(C)C)c3[nH]c4ccc([N+](=O)[O-])cc4c(=O)c23)c2c(=O)c3cc([N+](=O)[O-])ccc3[nH]c12`, the concentration for total growth inhibition (TGI) in assay [1] was 0.382 µM; in assay [4], 0.64 µM; in assay [5], 1.55 µM; in assay [2], 0.537 µM.

Turning to `CC(=O)N1N=C(N)CC1=O`, the concentration for total growth inhibition (TGI) in assay [3], in assay [1], in assay [4], in assay [5] and in assay [2] was over 100 µM throughout.

With `COc1ccccc1N=N/C(=N/NC(=O)c1ccc(C)cc1)c1ccc(N(CCC#N)CCC#N)cc1OC`, the TGI in assay [3] was 79 µM; in assay [1], 39.5 µM; in assay [4] it was over 100 µM; in assay [5], over 100 µM; in assay [2], 55.8 µM.

Take `OCCN=C1c2ccccc2C2C(c3ccccc31)C1c3ccccc3C(=NCCO)c3ccccc3C21` (centres undefined): the figures for the total growth inhibition concentration (TGI) in assay [1], in assay [4] and in assay [5] were 30.5 µM, 93 µM and 60.2 µM, respectively.

Turning to `O=c1[nH]c(Nc2cccc(Br)c2)nc2nc[nH]c12`, the total growth inhibition concentration (TGI) in assay [3], in assay [1], in assay [4] and in assay [5] was over 100 µM throughout.

For the compound `CC(=O)NNC(=S)/N=C/c1c(O)cc(C)oc1=O`, the concentration for total growth inhibition (TGI) in assay [1], in assay [4] and in assay [5] was over 100 µM each time.

In the case of `CCc1n[nH]c(=O)n1NC(=O)c1ccccc1C(=O)O`, the TGI in assay [3], in assay [1], in assay [4] and in assay [5] was over 100 µM in each case.

Consider `O=C(OCC1CCCN2CCCCC12)c1ccncc1` (centres undefined), for which the total growth inhibition concentration (TGI) in assay [1], in assay [4], in assay [5] and in assay [2] was over 100 µM in each case.

On to `CC1C(c2ccc3c(c2)OCO3)c2cc3c(cc2OC1N1CCCCC1)OCO3` (centres undefined), for which the TGI in assay [3], in assay [1] and in assay [4] was over 100 µM throughout.

In the case of `CCOC(=O)c1cc(=O)oc2c1N(C)c1ncccc1N2`, the concentration for total growth inhibition (TGI) in assay [1], in assay [4], in assay [5] and in assay [2] was over 100 µM each time.

Regarding `CSc1ccc(/C=C2\N=C(c3ccccc3)N(c3nc4c(Cl)cc(Cl)cc4s3)C2=O)cc1`, the total growth inhibition concentration (TGI) turned out to be 41.4 µM in assay [1], 53.4 µM in assay [4], 58.4 µM in assay [5] and 40.8 µM in assay [2].

Consider `CCN(CC)CCSc1nc2c(c(=N)n1-c1ccccc1)c(=S)n(-c1ccccc1)c(=S)n2-c1ccccc1`, for which the TGI in assay [1] is 20.4 µM; in assay [4], 4.77 µM; in assay [5], 7.87 µM; in assay [2] it was 22.2 µM.

Turning to `Cc1cc(O)c(/C=N/c2nc(-c3cccc([N+](=O)[O-])c3)cs2)c(=O)o1`, the TGI in assay [1], in assay [4] and in assay [5] was over 100 µM in each case.

Consider `CCCC#CC(O)(C(=O)OC1CCN(C)CC1)C1CCCCC1` (centres undefined), for which the TGI in assay [1], in assay [4], in assay [5] and in assay [2] was over 100 µM in each case.

Regarding `O=C1CCCCC[C@]12SC[C@H]1CON=C12`, the TGI in assay [3] was 69.6 µM; in assay [4] it was over 100 µM; in assay [5], over 100 µM; in assay [2], 44.7 µM.

`COc1ccc(N=C2C(=Nc3ccc(OC)cc3)N(S(=O)(=O)c3ccccc3)C(=S)N2c2ccc(OC)cc2)cc1`: the TGI in assay [3], in assay [1] and in assay [4] was over 100 µM each time.

`O=C(O)c1cc(O)c2c(c1)Cc1cccc(O)c1C2=O`: the concentration for total growth inhibition (TGI) in assay [4], in assay [5] and in assay [2] was over 100 µM throughout.

For `Cn1c2ccccc2n2c(=O)c3cccnc3c(C#N)c12`, the concentration for total growth inhibition (TGI) in assay [3], in assay [5] and in assay [2] was over 100 µM each time.

In the case of `CCOC(=O)/C=C(\N=P(c1ccccc1)(c1ccccc1)c1ccccc1)C(F)(F)C(F)(F)C(F)(F)C(F)(F)C(F)(F)F`, the total growth inhibition concentration (TGI) was over 100 µM in assay [1], over 100 µM in assay [4], over 100 µM in assay [5] and 72.4 µM in assay [2].

Turning to `COc1cc(C(=O)Nc2c3ccccc3nc3ccccc23)cc(OC)c1OC`, the concentration for total growth inhibition (TGI) in assay [3], in assay [1], in assay [4] and in assay [5] was over 100 µM throughout.

As to `O=C(NCCCCNCCCNC(=O)c1cc(-c2ccccc2)nc2ccccc12)c1cc(-c2ccccc2)nc2ccccc12`, the figures for the TGI in assay [3], in assay [1] and in assay [4] were 3.08 µM, 3.49 µM and 3.01 µM, respectively.

In the case of `COC(OC)(c1ccccc1)C(I)I`, the TGI in assay [3] turned out to be 6.98 µM; in assay [1], 35.4 µM; in assay [4], 43.6 µM; in assay [5] it was 27.4 µM.

Consider `CCOC(=O)C(C)(C)/C=C\C(Cl)=C(Cl)Cl`, for which the total growth inhibition concentration (TGI) in assay [3] and in assay [4] was over 100 µM in each case.

In assay [4], `COc1ccc2c(c1)CCCN1CCc3cc(OC)c(OC)cc3C21` (centres undefined) had a TGI of over 100 µM.

In the case of `COc1ccc(CCc2ccc(O)c(C(=O)O)c2)cc1OC`, the total growth inhibition concentration (TGI) in assay [3], in assay [1], in assay [4] and in assay [5] was over 100 µM each time.
